Where a name gives a salt, the structure may show the parent alone.
What was measured:
pepsin secretion = assay: Preventive effect on pepsin secretion in pylorus-ligated rats; format: in vivo, Male SD-strain rats; details: 100 mg/kg oral, 5 h after administration, hydrate
Description: (§1) Preventive effect on acid and pepsin secretions
(§2) Male SD-strain rats (6 to 7 weeks old) were starved for 48 hours, and then the pylori were ligated. Immediately after ligation, a solution or suspension of a test compound in distilled water was administered orally into the stomachs in an amount of 0.2 ml per 100 g of body weight (Dose: 100 mg/kg). Five hours after said administration of the test compound, the rats were sacrificed and the stomachs were removed. The gastric contents were centrifuged at 2,500 rpm for 10 minutes and the gastric juice was collected as the supernatant. The concentration of pepsin in the gastric juice was determined by Anson's method (c.f., J. Gen. Physiol., 22, pp. 77-89 (1938)) using hemoglobin as the substrate, and the preventive effect of the test compound on the pepsin secretion was estimated in terms of "decrease in pepsin concentration" according to the following formula: [formula]

gastric acid secretion = assay: Preventive effect on gastric acid secretion in pylorus-ligated rats; format: in vivo, Male SD-strain rats; details: 100 mg/kg oral, 5 h after administration, hydrate
Description: as §1, §2
On the other hand, the concentration of free acid in the gastric juice was determined by titrating said gastric juice to pH 7.0 with 0.1N NaOH, and the preventive effect of the test compound on the gastric acid secretion was estimated in terms of "the decrease in acidity of gastric juice" according to the following formula: [formula] (Results)

gastric mucous membrane = assay: Protective effect on gastric mucous membrane (excised stomach in artificial gastric juice); design: species or system Male Sprague-Dawley rats; details: 37° C., 60 min; for Amount of tyrosine: control 2.42 ± 0.15; for Amount of tyrosine / Inhibition (%) of digestion of mucous membrane: hydrate
Description: Protective effect of a test compound on gastric mucous membrane was examined by the method of Diago et al. (Yakugaku Zasshi, 101, 452-457(1981)). Male Sprague-Dawley rats (6-7 weeks old; one group: 5 rats) were fasted for 20 hours before the experiments. Water was given ad libitum and coprophagy was prevented by using cages with wide-mesh floors. The stomach was excised, opened along the greater curvature, rinsed in physiological saline solution, and the rumen was discarded. The stomach was incubated in 10 ml of an artificial gastric juice (100 mM HCl, 0.3% pepsin, 0.2% NaCl) containing a test compound, at 37° C. for 60 minutes. After the incubation, 2 ml of 7% trichloroacetic acid were added to 0.5 ml of medium, and the mixture was centrifuged. The amount of tyrosine in the supernatant was measured by using Folin-Ciocelteu reagent (J. gen. Physiol., 16, 59-63(1932)), and expressed as mg tyrosine/g tissue. The protective effect of the test compound on gastric mucous membrane was estimated in terms of "the inhibition of digestion of mucous membrane" which was calculated by the following formula: [formula] (Results)

Shay rat ulcers = assay: Effect on Shay rat ulcers (pylorus-ligated); format: in vivo, Male SD-strain rats; details: 17 h
Description: Male SD-strain rats (6 to 7 weeks old) were starved for 48 hours and then the pylori were ligated. Immediately after ligation, a solution or suspension of a test compound in distilled water was administered orally into the stomachs in an amount of 0.2 ml per 100 g of body weight (Dose: 200 or 300 mg/kg). Seventeen hours after the administration of the test compound, the degree of ulceration in forestomach was examined according to the method of Takagi et al (Chem. Pharm. Bull., 11(10), pp. 1282-1290 (1963)) with a modified scoring system. Depending on the diameter of each lesions, the ulcers were classified into the following 4 grades. Ulcer index was calculated by the sum of the number of ulcers in each degree multiplied by respective ulcer score. Further, based on the ulcer index determined above, the preventive effect of the test compound on Shay rat ulcer was calculated by the following formula: [formula] (Results)

[1] = Acute oral toxicity in rats (Experiment 10); format: in vivo; details: rat, in vivo, male SD-strain rats, 7 days
Description: (§3) After male SD-strain rats (6-7 weeks old) were starved for 20 hours, a solution or suspension of a test compound in distilled water was administered orally to the rats in an amount of one ml per 100 g of body weight. After administration of the test compound, the rats were allowed free access to water and food.

gastric mucus secretion = assay: Effect on gastric mucus secretion (alcian blue binding); format: in vivo, Male Sprague-Dawley rats; details: 100 mg/kg oral, 1 h, hydrate; for Alcian blue binding: control (water) 198.5 ± 6.4
Description: Stimulating effect of a test compound on gastric mucus secretion was examined by the method of Corne et al. (J. Physiol., 242, pp. 116-117(1974); J. Pharm. Pharmacol., 33, pp. 348-352(1981)). Male Sprague-Dawley rats (6-7 weeks old; one group: 6 rats) were fasted for 20 hours before the experiments. Water was given ad libitum and coprophagy was prevented by using cages with wide-mesh floors. A test compound dissolved or suspended in distilled water was administered orally to the rats at a dose of 100 mg/kg. One hour after the administration of the test compound, the stomachs were dissected, opened along the greater curvature, rinsed in ice-cold 0.25M sucrose, and the rumen was discarded. Then, the stomachs were incubated in 10 ml of a 0.15M sucrose-0.05M sodium acetate solution (pH 5.8) containing alcian blue (1 mg/ml), at room temperature for 1.5 hours. Finally, the stomachs were placed in 15 ml of a 0.5M magnesium chloride solution for 2 hours with occasional shaking and then removed, and the magnesium chloride solution was shaken briefly with 10 ml of diethyl ether. The optical density of the aqueous layer was read at 605 nm, and the degree of alcian blue binding was expressed as μg alcian blue/g of tissue. The stimulating effect of the test compound on gastric mucus secretion was estimated in terms of "the increase in alcian blue binding" which was calculated by the following formula: [formula] (Results)

urinary electrolytes [2] = assay: Effect on urinary electrolytes (Experiment 9); format: in vivo, Male SD-strain rats; details: for Urine volume: 4 h, control 6.5 ± 0.3; for Na/K ratio: 4 h urine, control 5.8 ± 0.6
Description: Male SD-strain rats (6 to 7 weeks old, one group: 6 rats) were starved overnight, and a physiological saline solution (3 ml/100 g of body weight) was orally administered to the rats. One hour later, a suspension of a test compound in a physiological saline solution was administered orally to the rats in an amount of 3 ml per 100 g of body weight (Dose: 500 or 1,000 mg/kg). Immediately after administration of the test compound, the rats were placed into metabolic cages (one rat per cage) and deprived of water and food for 4 hours. The urine samples which were excreted during a 4 hour period were collected. Sodium and potassium in the urine were estimated by a flame photometer (Hitachi Model-205).

aspirin-induced ulcers = assay: Effect on aspirin-induced ulcers; format: in vivo, Male Donryu-strain rats; details: p.o. 0.8 m mol./kg (400 mg/kg); aspirin 200 mg/kg
Description: Male Donryu-strain rats (8 to 9 weeks old) were starved overnight, and a solution or suspension of a test compound in distilled water was administered orally into the stomachs in an amount of one ml per 100 g of body weight. Half an hour later, a suspension of aspirin in 0.25% CMC solution was administered orally to the rats in an amount of 0.5 ml per 100 g of body weight (Dose: 200 mg/kg). Four hours after the administration of aspirin, the rats were sacrificed and the stomachs were removed and inflated by injecting 10 ml of 1% formalin solution to fix the inner layers of the gastric walls. The stomach was then incised along the greater curvature and the lengths of the lesions were measured and summated to give ulcer index (in mm) for each animal. The preventive effect of the test compound on aspirin-induced ulcers were calculated by the following formula: [formula] (Results)

in vivo = details: mouse, oral, male ddY-strain mice, 7 days
Description: After male ddY-strain mice (4 weeks old) were starved for 4 hours, a suspension of a test compound in distilled water containing a small amount of Tween 80 was administered orally to the mice in an amount of 0.1 ml per 10 g of body weight. After administration of the test compound, the mice were allowed free access to water and food. […] As a result, the LD50 of sulfodehydroabietic acid calcium salt was more than 2,000 mg/kg.

urinary electrolytes [3] = assay: Effect on urine volume and urinary electrolytes (Experiment 7); format: in vivo, Male SD-strain rats; details: for Urine volume: 5 h, 2 rats per cage, control 12.3; for Na/K: 5 h urine, control 5.8
Description: Male SD-strain rats (6 to 7 weeks old) were starved overnight, and a physiological saline solution (3 ml/100 g of body weight) was orally administered to the rats. One hour later, a solution or suspension of a test compound in a 0.25% CMC-physiological saline solution was administered orally to the rats in an amount of 3 ml per 100 g of body weight (Dose: 50 and 500 mg/kg). Immediately after administration of the test compound, the rats were placed into metabolic cages (2 rats per cage) and deprived of water and food for 5 hours. The urine samples which were excreted during a 5 hour period were collected. Sodium and potassium in the urine were estimated by a flame photometer (Hitachi Model-205).

rats = assay: Acute oral toxicity in rats (Experiment 10); format: in vivo; details: male SD-strain rats, 7 days, hydrate, 10080 min
Description: as §3

[4] = 1 mg/ml in artificial gastric juice
[5] = 4 mg/ml in artificial gastric juice

CC(C)c1cc2c(cc1S(=O)(=O)O)[C@@]1(C)CCC[C@@](C)(C(=O)O)[C@@H]1CC2 [Sulfodehydroabietic acid monosodium salt, 1,4a-dimethyl-1-carboxy-6-sulfo-7-isopropyl-1,2,3,4,4a,9,10,10a-octahydro-phenanthrene monosodium salt 5 hydrate]
Decrease (%) in pepsin concentration (pepsin secretion): 96%
Decrease (%) in acidity of gastric juice (gastric acid secretion): 43%
Amount of tyrosine (gastric mucous membrane; [4]): 1.61 ± 0.13 mg/g tissue
Amount of tyrosine (gastric mucous membrane; [5]): 0.95 ± 0.07 mg/g tissue
inhibition at 1000 µg/mL (gastric mucous membrane; Rattus norvegicus, 1 h, 1 mg/ml in artificial gastric juice, read-out: Inhibition (%) of digestion of mucous membrane): 33%
inhibition at 4000 µg/mL (gastric mucous membrane; Rattus norvegicus, 1 h, 4 mg/ml in artificial gastric juice, read-out: Inhibition (%) of digestion of mucous membrane): 61%
Preventive effect on Shay rat ulcers (Shay rat ulcers; 200 mg/kg oral, hydrate): 100%
LD50 at 168 h [1]: > 2000 mg/kg
Alcian blue binding (gastric mucus secretion): 287.3 ± 34.2 μg/g tissue
Increase (%) in alcian blue binding (gastric mucus secretion): 45%
Urine volume (urinary electrolytes [2]; 500 mg/kg oral): 6.2 ± 0.5 mL
Na/K ratio (urinary electrolytes [2]; 500 mg/kg oral): 5.6 ± 0.5
Urine volume (urinary electrolytes [2]; 1000 mg/kg oral): 4.7 ± 0.4 mL
Na/K ratio (urinary electrolytes [2]; 1000 mg/kg oral): 5.9 ± 0.2
change in urinary sodium-potassium ratio (urinary electrolytes [2]; 500 or 1000 mg/kg oral, rats, in words): no substantial change in urinary sodium-potassium ratio
Preventive effect on aspirin-induced ulcers (aspirin-induced ulcers): 68%

CC(C)c1cc2c(cc1S(=O)(=O)O)[C@@]1(C)CCC[C@@](C)(C(=O)O)[C@@H]1CC2 [Sulfodehydroabietic acid calcium salt, sulfodehydroabietic acid calcium salt 2.5 hydrate]
Decrease (%) in pepsin concentration (pepsin secretion): 99%
LD50 at 168 h (in vivo): > 2000 mg/kg
Decrease (%) in acidity of gastric juice (gastric acid secretion): 30%
Amount of tyrosine (gastric mucous membrane; [4]): 1.72 ± 0.08 mg/g tissue
Inhibition (%) of digestion of mucous membrane (gastric mucous membrane; [4]): 29%
Amount of tyrosine (gastric mucous membrane; [5]): 0.86 ± 0.04 mg/g tissue
Inhibition (%) of digestion of mucous membrane (gastric mucous membrane; [5]): 64%
Urine volume (urinary electrolytes [3]; 50 mg/kg oral): 11.5 mL
Na/K (urinary electrolytes [3]; 50 mg/kg oral): 5.2
Urine volume (urinary electrolytes [3]; 500 mg/kg oral): 11.3 mL
Na/K (urinary electrolytes [3]; 500 mg/kg oral): 6.8
Preventive effect on Shay rat ulcers (Shay rat ulcers; 300 mg/kg oral): 100%
LD50 (rats): > 2000 mg/kg
Alcian blue binding (gastric mucus secretion): 284.7 ± 14.9 μg/g tissue
Increase (%) in alcian blue binding (gastric mucus secretion): 44%

— US4529602A, “Method for treatment or prophylaxis of gastro-intestinal disease” (priority 1981, dated 1985)
